Where two headings read alike, the source gives them in different places.
How the values were obtained:
Rhyzopertha dominica = assay: whole plant or invertebrate
Protocol: (§1) Cryptolestes sp. was reared on wheat feed. S. oryzae, Cryptolestes sp. and T. castaneum cultures were maintained at 25±1° C. and 70% RH whereas R. dominica cultures were maintained at 30±1° C. and 70% RH. From the established cultures, 2-week-old adults were taken and counted into 10 cm×2.3 cm size test tubes at 50 per replicate. The mouth of the tube was closed with a cloth piece held by small rubber ring. The insects were exposed to a range of doses (10 to 100 mg/litre) of esters for 24 hours in 0.85-liter desicators at the laboratory temperature of 26±2° C. Pure grade esters including allyl acetate, butyl acetate, ethyl acetoacetate, isopropyl acetate and propyl acetate were procured from Merck India Ltd. In each desiccator a 9 cm diameter Whatman No. 1 filter circle was placed; the filter circle acted as evaporating surface for the injected liquids (esters). Required quantity of the ester was drawn from the bottles using 10, 25 or 50 micro litre liquid syringe. There were 6 replicates for each dose with equal number of replicates for untreated control. The exposure period in all cases was 24 hours. […] Insect mortality was assessed after 14 days. Corrected mortality was arrived at based on Abbott's formula (1925).

Sitophilus oryzae = assay: whole plant or invertebrate
Protocol: as §1

[1] = cited from earlier work
[2] = system: T. castaneum mixed-age cultures; conditions: 72 hours at 26±2° C., 19.5 liter tin container with 12 kg wheat
Description: Fumigation experiments with allyl acetate have been conducted in 19.5 litre capacity tin containers with mixed- age cultures of R. dominica, S. oryzae and T. castaneum as the test insects.
Mixed-age cultures of S. oryzae and R. dominica were obtained by allowing 300 adults of the individual species to breed in about 1 kg of wheat in a 2-liter glass jar. To obtain mixed- age culture of T. castaneum about 300 adults were released into 1 kg of whole-wheat flour plus 5% dried yeast in a 2-litre glass jar. The insect culture jars were kept under the rearing temperature conditions i.e., 25±1° C. for S. oryzae and T. castaneum and 30±1° C. for R. dominica.
The infested grain/flour after an incubation period of 7 weeks was used for the experiment. The cultures were weighed into 50 gm aliquots in 21 cm×14 cm size cloth bags. One set of three test insect bags comprising R. dominica, S. oryzae and T. castaneum were kept at the bottom of the container before filling the grain.
Another set of three-test insect bags was kept on the top layer of grains. The grain-filled containers were, then, fumigated with allyl acetate for 72 hours at 26±2° C. There were 6 doses ranging from 100 to 800 mg/litre with 3 replicates/dosage along with untreated controls. Required quantity of allyl acetate was measured in 10 and 25 ml measuring cylinder and quickly poured on to 5 gm of absorbent cotton wool kept over the grain layer in the tin container.
Immediately after dosing, the container was closed with the lid tightly and sealed along the rim with adhesive tape. At the end of 72 hour, the lid was removed to aerate the commodity and the test insect bags were retrieved and the contents transferred to 300 ml capacity glass bottles.
Insect survivors in the samples were recorded at weekly intervals for 8 weeks. Mortality in fumigated batches was calculated based on emergence/survivors in controls.

[3] = system: T. castaneum mixed-age cultures; assay: Mixed-age cultures exposed to allyl acetate in desiccators (Example 3); format: in vivo; conditions: Tribolium castaneum, read-out: Mortality (%) (Mean ± SD); for mortality at 25 µg/mL: 25 mg/liter; for mortality at 50 µg/mL: 50 mg/liter; for mortality at 100 µg/mL: 100 mg/liter; for mortality at 150 µg/mL: 150 mg/liter
Protocol: (§2) The grain/ flour containing mixed- age culture of the insect was weighted into 15 cm diameter paper plates in 50 gm aliquots and kept in 0.85 litre desiccators. A 9 cm size Whatman No.1 filter circle was placed in each desiccator to act as evaporating surface for allyl acetate when injected. The insects were exposed to 4 doses of allyl acetate i.e., 25, 50, 100 and 150 mg/liter. Allyl acetate was drawn from the bottle using 100 and 250 micro liter liquid syringes and injected into the desiccators, so that the liquid falls on the filter circle inside the desiccator. There were three replicates each for each dose and for each exposure period. […] Insects emerged from wheat (S. oryzae and R. dominica) or survived in wheat flour (T. castaneum) samples were checked at weekly intervals for 8 weeks. Similarly, counts were made in untreated control batches. Mortality in treated batches was determined by taking into account of survival/emergence in controls as 100%. […] For example, allyl acetate at 25 mg/litre with 48-hour exposure caused 99.8% kill in R. dominica whereas, 85.1 and 86.5% mortality was recorded, respectively, in S. oryzae and T. castaneum.

[4] = system: S. oryzae mixed-age cultures; assay: as above; format: in vivo; conditions: Sitophilus oryzae, read-out: Mortality (%) (Mean ± SD); for mortality at 25 µg/mL: 25 mg/liter; for mortality at 50 µg/mL: 50 mg/liter; for mortality at 100 µg/mL: 100 mg/liter; for mortality at 150 µg/mL: 150 mg/liter
Protocol: as §2

[5] = system: R. dominica mixed-age cultures; assay: as above; format: in vivo; conditions: Rhyzopertha dominica, read-out: Mortality (%) (Mean ± SD); for mortality at 25 µg/mL: 25 mg/liter; for mortality at 50 µg/mL: 50 mg/liter; for mortality at 100 µg/mL: 100 mg/liter; for mortality at 150 µg/mL: 150 mg/liter
Protocol: as §2

rat = conditions: cited from earlier work
Cryptolestes sp. = assay: LD 50 / LD 99 of allyl acetate to adults, probit analysis (Example 2); format: in vivo; conditions: 24-hour exposure at 26 ± 2° C.
Protocol: Assays with allyl acetate against the adults of four species of stored grain insects namely S. oryzae, R. dominica, T. castaneum and Cryptolestes sp. were carried out to determine LD 50 and LD 99 doses. […] Cryptolestes sp. was reared on wheat feed. […] The insects were exposed to different doses of allyl acetate for 24 hour in 0.85-liter desiccators to yield 20-100% mortality. There were 6 replicates for each dose along with equal number of untreated control. […] Mortality of treated insects was assessed at the end of 14 days and it was corrected for natural control mortality. The data for the individual species were subjected to probit analysis following the method of Finney (1971) to arrive at LD 50 and LD 99 values.

[6] = system: R. dominica mixed-age cultures; conditions: 200 mg/liter, 26 ± 2° C., 19.5 liter tin container with 12 kg of wheat
Protocol: Further fumigation tests were carried out with allyl acetate at 200 mg/litre and with three different exposure periods of 24, 48 and 72 hours in 19.5 litre tin containers filled with 12 kg of wheat. Mixed- age cultures of R. dominica, S. oryzae and T. castaneum were used as the test insects.
Mixed-age cultures of S. oryzae and R. dominica were obtained by allowing 300 adults of the individual species to breed in about 1 kg of wheat in a 2-liter glass jar. To obtain mixed- age culture of T. castaneum about 300 adults were released into 1 kg of whole-wheat flour plus 5% dried yeast in a 2-litre glass jar. The insect culture jars were kept under the rearing temperature conditions i.e., 25±1° C. for S. oryzae and T. castaneum and 30±1° C. for R. dominica. The infested grain/flour after an incubation period of 7 weeks was used for the experiment. The cultures were weighed into 50 gm aliquots in 21 cm×14 cm size cloth bags. One set of three test insect bags comprising R. dominica, S. oryzae and T. castaneum were kept at the bottom of the container before filling the grain. […] Another set of three-test insect bags was kept on the top layer of grains. The grain-filled containers were, then, fumigated with allyl acetate for 24, 48 and 72 hours at 26±2° C. The commodity was treated with allyl acetate at the dosage of 200 mg/litre. Required quantity of allyl acetate was measured in 10 and 25 ml measuring cylinder and quickly poured on to 5 gm of absorbent cotton wool kept over the grain layer in the tin container. Immediately after dosing, the container was closed with the lid tightly and sealed along the rim with adhesive tape. At the end of the exposure period, the lid was removed to aerate the commodity and the test insect bags were retrieved and the contents transferred to 300 ml capacity glass bottles. Insect survivors in the samples were recorded at weekly intervals for 8 weeks. Mortality in fumigated batches was calculated based on emergence/survivors in controls.

[7] = Rhyzopertha dominica, read-out: Mortality (%) (Mean ± SD)
[8] = Sitophilus oryzae, read-out: Mortality (%) (Mean ± SD)

SMILES: C=CCOC(C)=O [allyl acetate]
- mortality at 10 µg/mL (Rhyzopertha dominica; [7]): 100%
- mortality at 20 µg/mL (Rhyzopertha dominica; [7]): 100%
- mortality at 30 µg/mL (Rhyzopertha dominica; [7]): 100%
- mortality at 50 µg/mL (Rhyzopertha dominica; [7]): 100%
- mortality at 100 µg/mL (Rhyzopertha dominica; [7]): 100%
- mortality of the adults (Rhyzopertha dominica; in vivo): 100%
- mortality at 10 µg/mL (Sitophilus oryzae; [8]): 92.3 ± 12.7%
- mortality at 20 µg/mL (Sitophilus oryzae; [8]): 100%
- mortality at 30 µg/mL (Sitophilus oryzae; [8]): 100%
- mortality at 50 µg/mL (Sitophilus oryzae; [8]): 100%
- mortality at 100 µg/mL (Sitophilus oryzae; [8]): 100%
- mortality of the adults (Sitophilus oryzae; in vivo): 100%
- Vapour pressure at 27° C. (mm Hg) ([1]; 27° C.): 6 mm Hg
- Solubility in water [1]: Insoluble
- % mortality based on survivors in controls ([2]; 100 mg/liter): (100) %
- No. of survivors from 50 g lots of mixed-age cultures following treatment ([2]; 100 mg/liter): 0
- % mortality based on survivors in controls ([2]; 150 mg/liter): (100) %
- No. of survivors from 50 g lots of mixed-age cultures following treatment ([2]; 150 mg/liter): 0
- % mortality based on survivors in controls ([2]; 200 mg/liter): (100) %
- No. of survivors from 50 g lots of mixed-age cultures following treatment ([2]; 200 mg/liter): 0
- % mortality based on survivors in controls ([2]; 400 mg/liter): (100) %
- No. of survivors from 50 g lots of mixed-age cultures following treatment ([2]; 400 mg/liter): 0
- % mortality based on survivors in controls ([2]; 600 mg/liter): (100) %
- No. of survivors from 50 g lots of mixed-age cultures following treatment ([2]; 600 mg/liter): 0
- % mortality based on survivors in controls ([2]; 800 mg/liter): (100) %
- No. of survivors from 50 g lots of mixed-age cultures following treatment ([2]; 800 mg/liter): 0
- mortality at 25 µg/mL ([3]; 24 hours exposure): 0%
- mortality at 50 µg/mL ([3]; 24 hours exposure): 82.6 ± 17.8%
- mortality at 100 µg/mL ([3]; 24 hours exposure): 98.4 ± 3.3%
- mortality at 150 µg/mL ([3]; 24 hours exposure): 99.2 ± 1.7%
- mortality at 25 µg/mL ([3]; 48 hours exposure): 86.5%
- mortality at 50 µg/mL ([3]; 48 hours exposure): 100%
- mortality at 100 µg/mL ([3]; 48 hours exposure): 100%
- mortality at 150 µg/mL ([3]; 48 hours exposure): 100%
- mortality at 25 µg/mL ([3]; 120 hours exposure): 51.4 ± 11.6%
- mortality at 50 µg/mL ([3]; 120 hours exposure): 73.4 ± 17.7%
- mortality at 100 µg/mL ([3]; 120 hours exposure): 97.3 ± 3.2%
- mortality at 150 µg/mL ([3]; 120 hours exposure): 100%
- mortality at 25 µg/mL ([4]; 24 hours exposure): 87.9 ± 4.1%
- mortality at 50 µg/mL ([4]; 24 hours exposure): 98 ± 1.5%
- mortality at 100 µg/mL ([4]; 24 hours exposure): 100%
- mortality at 150 µg/mL ([4]; 24 hours exposure): 100%
- mortality at 25 µg/mL ([4]; 48 hours exposure): 85.1%
- mortality at 50 µg/mL ([4]; 48 hours exposure): 98.9 ± 1.3%
- mortality at 100 µg/mL ([4]; 48 hours exposure): 100%
- mortality at 150 µg/mL ([4]; 48 hours exposure): 100%
- mortality at 25 µg/mL ([4]; 120 hours exposure): 98.8 ± 1.8%
- mortality at 50 µg/mL ([4]; 120 hours exposure): 100%
- mortality at 100 µg/mL ([4]; 120 hours exposure): 100%
- mortality at 150 µg/mL ([4]; 120 hours exposure): 100%
- mortality at 25 µg/mL ([5]; 24 hours exposure): 99.8 ± 0.3%
- mortality at 50 µg/mL ([5]; 24 hours exposure): 100%
- mortality at 100 µg/mL ([5]; 24 hours exposure): 100%
- mortality at 150 µg/mL ([5]; 24 hours exposure): 100%
- mortality at 25 µg/mL ([5]; 48 hours exposure): 99.8%
- mortality at 50 µg/mL ([5]; 48 hours exposure): 99.8 ± 0.4%
- mortality at 100 µg/mL ([5]; 48 hours exposure): 100%
- mortality at 150 µg/mL ([5]; 48 hours exposure): 100%
- mortality at 25 µg/mL ([5]; 120 hours exposure): 99.8 ± 0.5%
- mortality at 50 µg/mL ([5]; 120 hours exposure): 100%
- mortality at 100 µg/mL ([5]; 120 hours exposure): 100%
- mortality at 150 µg/mL ([5]; 120 hours exposure): 100%
- LD 50 rat oral (rat): LD 50 rat oral 130 mg/kg
- LD 99 (mg/Liter) (Cryptolestes sp.): 5.44 (4.29; 15.6) mg/Liter
- % mortality based on survivors in controls ([6]; exposure period 24 hour): (100) %
- No. of survivors from 50 g lots of mixed-age cultures following treatment ([6]; exposure period 24 hour): 0
- % mortality based on survivors in controls ([6]; exposure period 48 hour): (100) %
- No. of survivors from 50 g lots of mixed-age cultures following treatment ([6]; exposure period 48 hour): 0
- % mortality based on survivors in controls ([6]; exposure period 72 hour): (100) %
- No. of survivors from 50 g lots of mixed-age cultures following treatment ([6]; exposure period 72 hour): 0
